Experimental data published in US5665738A, “Imidazole derivatives and processes for the preparation thereof” (Korea Research Institute of Chemical Technology, priority 1994, dated 1997).

system: angiotensin II receptor; experiment: Angiotensin II receptor binding assay ([3H] angiotensin II displacement); settings: 60 minutes at 25° C., pH 7.2, test concentration not given
Protocol: The inventive compounds were tested to measure their angiotensin II receptor binding capacity as follows.
1. Angiotensin II receptor binding assay
In accordance with the procedure disclosed in Chiu, A. T. et al., Eur. J. Pharm., 157, 13 ([…])t a ligand marked with a radioistope was reacted with an angiotensin II receptor and the reactant was filtered with a glass fiber to remove unreacted ligand. After washing the filter, the amount of the remaining isotope was measured to determine the binding activity of the ligand, as described below in detail.
(i) Isolation of angiotensin II receptor
Sprague-Dawley rats and Wistar rats of 250 to 350 g (from The Korea Research Institute of Chemical Technology) were tested and the test procedures were carried out at 4° C., unless otherwise specified. Adrenal gland was separated from the Sprague-Dawley rats (liver, in the case of Wistar rats) into cortex and medulla. The separated adrenal cortex and medulla were washed with a sucrose buffer solution (0.2M sucrose, 1 mM EDTA, 10 mM Tris, pH 7.2) and homogenized in the same buffer solution by using a Teflon pestle and a Brinkmann homogenizer. The homogenates were centrifuged at 3,000× g for 10 minutes to remove precipitates and further centrifuged at 12,000× g for 13 minutes. The final supernatants were centrifuged at 102,000× g for 1 hour to obtain precipitates, which were washed with a Tris buffer solution (50 mM Tris, 5 mM MgCl2, pH 7.2) and re-centrifuged at 102,000× g for 1 hour. The resulting precipitates were immediately processed at the following step or stored at -70° C.
The precipitates were suspended in a Tris buffer solution. The amount of protein was determined by using a Bio-Rad DC protein analyzing kit and the protein concentration was adjusted to the amounts of: 0.2 to 0.3 mg/ml (Sprague-Dawley rat: adrenal cortex), 1.5 to 2.0 mg/ml (Sprague-Dawley rat: adrenal medulla), and 1.5 to 2.0 mg/ml (Wistar rat: liver). To the suspension, bovine serum albumin (BSA) was added to a concentration of 0.25 wt % and the resultant was immediately processed at the following step or stored at -70° C.
(ii) Measurement of angiotensin II receptor binding capacity
50 μl (based on ligand) of [^3 H] angiotensin II (NEN, NET-446) and 10 μl of each of the test compounds with various concentrations were added to the buffer solution (50 mM Tris (pH 7.2), 5 mM MgCl2, 0.25% BSA) to adjust the final volume to be 0.5 ml. Losartan (Dup 753), which is disclosed in EP No. 400,974 issued to Merck, was used as the control compound. 100 μl of the receptor suspension was added thereto and the resulting solution was reacted for 60 minutes while stirring in a water bath at 25° C. 3 ml of cold buffer solution for analysis was added to cease the reaction. The isotope which was bound to the receptor was isolated from the resultant by using Brandel Cell Harvester System with Whatman glass fiber GF/C. After washing the filter, the radioactivity of the filter was determined by using a liquid scintillation counter. Binding inhibition (%) of the test compound was calculated as follows:
Binding Inhibition (%)=[{(T-B)-(S-B)}/(T-B)]×100
wherein T is the radioactivity (cpm) of the reaction product untreated with the test compound, S is the radioactivity (cpm) of the reaction product treated with the test compound, and B is the radioactivity (cpm) of blank test.

Binding Inhibition (%) | Compound
63.2 | CCCCc1nc(Cl)c(C(O)c2cccc(CN(CC)CC)n2)n1Cc1ccc(-c2ccccc2-c2nnn[nH]2)cc1 (centres unmarked) [Compound 12, {2-butyl-5-chloro-3-[(2'-(1H-tetrazol-5-yl)biphenyl-4-yl)methyl]-3H-imidazol-4-yl}[6-((diethylamino)methyl)pyridin-2-yl]methanol]
73.3 | CCCCc1nc(Cl)c(C(O)c2ccc(CN(CC)CC)cn2)n1Cc1ccc(-c2ccccc2-c2nnn[nH]2)cc1 (centres unmarked) [Compound 33, {2-butyl-5-chloro-3-[(2'-(1H-tetrazol-5-yl)biphenyl-4-yl)methyl]-3H-imidazol-4-yl}[5-((diethylamino)methyl)pyridin-2-yl]methanol]
81.3 | CCCCc1nc(Cl)c(C(=O)c2ccc(C=O)cn2)n1Cc1ccc(-c2ccccc2-c2nn[nH]n2)cc1 [Compound 27, {2-butyl-5-chloro-3-[(2'-(1H-tetrazol-5-yl1)biphenyl-4-yl)methyl]-3H-imidazol-4-yl}(5-formylpyridin-2-yl)methanone]
90.2 | CCCCc1nc(Cl)c(C(O)c2ccc(CO)cn2)n1Cc1ccc(-c2ccccc2-c2nnn[nH]2)cc1 (centres unmarked) [Compound 30, {2-butyl-5-chloro-3-[(2'-(1H-tetrazol-5-yl)biphenyl-4-yl)methyl]-3H-imidazol-4-yl}[5-(hydroxymethyl)pyridin-2-yl]methanol]
87.8 | CCCCc1nc(Cl)c(C(O)c2ccc(C(OC)OC)cn2)n1Cc1ccc(-c2ccccc2-c2nnn[nH]2)cc1 (centres unmarked) [Compound 25, {2-butyl-5-chloro-3-[(2'-(1H-tetrazol-5-yl)biphenyl-4-yl)methyl]-3H-imidazol-4-yl}[5-(dimethoxymethyl)pyridin-2-yl]methanol]
92.8 | CCCCc1nc(Cl)c(C(=O)c2cccc(C(=O)N(CC)CC)[n+]2[O-])n1Cc1ccc(-c2ccccc2-c2nn[nH]n2)cc1 [Compound 37, {2-butyl-5-chloro-3-[(2'-(1H-tetrazol-5-yl)biphenyl-4-yl)methyl]-3H-imidazol-4-yl}[6-(diethylamino)carbonyl-1-oxypyridin-2-yl]methanone]
95.4 | CCCCc1nc(Cl)c(C(=O)c2cccc(C=NO)[n+]2[O-])n1Cc1ccc(-c2ccccc2-c2nn[nH]n2)cc1 [Compound 38, {2-butyl-5-chloro-3-[(2'-(1H-tetrazol-5-yl)biphenyl-4-yl)methyl]-3H-imidazol-4-yl}[6-(hydroxyimino)methyl-1-oxypyridin-2-yl]methanone]
89.0 | CCCCc1nc(Cl)c(C(=O)c2cccc(C(C)=O)[n+]2[O-])n1Cc1ccc(-c2ccccc2-c2nn[nH]n2)cc1 [Compound 20, {2-butyl-5-chloro-3-[(2'-(1H-tetrazol-5-yl)biphenyl-4-yl)methyl]-3H-imidazol-4-yl}(6-acetyl-1-oxypyridin-2-yl)methanone]
30.5 | CCCCc1nc(Cl)c(C(O)c2cccc(CN(CC)CC)[n+]2[O-])n1Cc1ccc(-c2ccccc2-c2nn[nH]n2)cc1 (centres unmarked) [Compound 9, {2-butyl-5-chloro-3-[(2'-(1H-tetrazol-5-yl)biphenyl-4-yl)methyl]-3H-imidazol-4-yl}[6-(diethylamino)methyl-1-oxypyridin-2-yl]methanol]
98.8 | CCCCc1nc(Cl)c(C(=O)c2ccc(C[N+]([O-])(CC)CC)c[n+]2[O-])n1Cc1ccc(-c2ccccc2-c2nn[nH]n2)cc1 [Compound 32, {2-butyl-5-chloro-3-[(2'-(1H-tetrazol-5-yl)biphenyl-4-yl)methyl]-3H-imidazol-4-yl}[5-((diethyl)(oxy)amino)methyl-1-oxypyridin-2-yl]methanone]
94.0 | CCCCc1nc(Cl)c(C(=O)c2ccc(C(OC)OC)cn2)n1Cc1ccc(-c2ccccc2-c2nnn[nH]2)cc1 [Compound 26, {2-butyl-5-chloro-3-[(2'-(1H-tetrazol-5-yl)biphenyl-4-yl)methyl]-3H-imidazol-4-yl}[5-(dimethoxymethyl)pyridin-2-yl]methanone]
57.1 | CCCCc1nc(Cl)c(C(O)c2cccc(Br)n2)n1Cc1ccc(-c2ccccc2-c2nnn[nH]2)cc1 (centres unmarked) [Compound 18, {2-butyl-5-chloro-3-[(2'-(1H-tetrazol-5-yl)biphenyl-4-yl)methyl]-3H-imidazol-4-yl}(6-bromopyridin-2-yl)methanol]
88.7 | CCCCc1nc(Cl)c(C(=O)c2cccc(C(C)O)[n+]2[O-])n1Cc1ccc(-c2ccccc2-c2nn[nH]n2)cc1 (centres unmarked) [Compound 19, {2-butyl-5-chloro-3-[(2'-(1H-tetrazol-5-yl)biphenyl-4-yl)methyl]-3H-imidazol-4-yl}[6-(1-hydroxyethyl)-1-oxypyridin-2-yl]methanone]
95.0 | CCCCc1nc(Cl)c(C(=O)c2cccc(C=O)[n+]2[O-])n1Cc1ccc(-c2ccccc2-c2nn[nH]n2)cc1 [Compound 2, {2-butyl-5-chloro-3-[(2'-(1H-tetrazol-5-yl)biphenyl-4-yl)methyl]-3H-imidazol-4-yl}(6-formyl-1-oxypyridin-2-yl)methanone]
68.9 | CCCCc1nc(Cl)c(C(=O)c2cccc(CO)n2)n1Cc1ccc(-c2ccccc2-c2nnn[nH]2)cc1 [Compound 8, {2-butyl-5-chloro-3-[(2'-(1H-tetrazol-5-yl)biphenyl-4-yl)methyl]-3H-imidazol-4-yl}[6-(hydroxymethyl)pyridin-2-yl]methanone]
62.9 | CCCCc1nc(Cl)c(C(O)c2cccc(Br)[n+]2[O-])n1Cc1ccc(-c2ccccc2-c2nn[nH]n2)cc1 (centres unmarked) [Compound 16]
83.6 | CCCCc1nc(Cl)c(C(=O)c2ccc(CCl)cn2)n1Cc1ccc(-c2ccccc2-c2nnn[nH]2)cc1 [Compound 29, {2-butyl-5-chloro-3-[(2'-(1H-tetrazol-5-yl)biphenyl-4-yl)methyl]-3H-imidazol-4-yl}[5-(chloromethyl)pyridin-2-yl]methanone]
90.4 | CCCCc1nc(Cl)c(C(=O)c2ccc(C=O)c(C)[n+]2[O-])n1Cc1ccc(-c2ccccc2-c2nn[nH]n2)cc1 [Compound 40, {2-butyl-5-chloro-3-[(2'-(1H-tetrazol-5-yl)biphenyl-4-yl)methyl]-3H-imidazol-4-yl}(5-formyl-6-methyl-1-oxypyridin-2-yl)methanone]
50.3 | CCCCc1nc(Cl)c(C(=O)c2cccc(Br)n2)n1Cc1ccc(-c2ccccc2-c2nnn[nH]2)cc1 [Compound 17, {2-butyl-5-chloro-3-[(2'-(1H-tetrazol-5-yl)biphenyl-4-yl)methyl]-3H-imidazol-4-yl}(6-bromopyridin-2-yl)methanone]
78.9 | CCCCc1nc(Cl)c(C(=O)c2ccc(CO)cn2)n1Cc1ccc(-c2ccccc2-c2nn[nH]n2)cc1 [Compound 28]
97.8 | CCCCc1nc(Cl)c(C(=O)c2ccc(CN(CC)CC)c[n+]2[O-])n1Cc1ccc(-c2ccccc2-c2nn[nH]n2)cc1 [Compound 31, {2-butyl-5-chloro-3-[(2'-(1H-tetrazol-5-yl)biphenyl-4-yl)methyl]-3H-imidazol-4-yl}[5-(diethylamino)methyl-1-oxypyridin-2-yl]methanone]
90.1 | CCCCc1nc(Cl)c(C(=O)c2ccc(C(OC)OC)c[n+]2[O-])n1Cc1ccc(-c2ccccc2-c2nn[nH]n2)cc1 [Compound 22, {2-butyl-5-chloro-3-[(2'-(1H-tetrazol-5-yl)biphenyl-4-yl)methyl]-3H-imidazol-4-yl}[5-(dimethoxymethyl)-1-oxypyridin-2-yl]methanone]
86.5 | CCCCc1nc(Cl)c(C(=O)c2cccc(C(=O)OC)[n+]2[O-])n1Cc1ccc(-c2ccccc2-c2nn[nH]n2)cc1 [Compound 21, {2-butyl-5-chloro-3-[(2'-(1H-tetrazol-5-yl)biphenyl-4-yl)methyl]-3H-imidazol-4-yl}(6-methoxycarbonyl-1-oxypyridin-2-yl)methanone]
